{"source": "patent US12377067B2", "about": "“Methods of treating PAH with combinations of ralinepag and other agents” (Arena Pharmaceuticals, Inc., priority 2016, dated 2025)", "key": {"[1]": {"test_system": "human PASMCs from PAH patients", "experiment": "Cyclic AMP assay", "assay_type": "cell-based", "settings": "cyclic AMP assay", "experimental": "Human PASMCs from PAH patients were grown to 70-80% confluence in 12 well plates in DMEM/F12 containing 9% foetal bovine serum (FBS), penicillin (50 U/ml)/streptomycin (50 ag/ml). To assess the time-course of cAMP elevation, cells were stimulated with 100 nM ralinepag for varying times (0.5, 1, 2, 4, 8, 24, 48 hours). This dose of ralinepag was chosen on the basis that it was close to the EC50 for cAMP generation in preliminary experiments. In other experiments, the IP receptor agonist was added for a specified time (60 minutes) over a full concentration range (0.1-10,000 nM) in the absence and presence of […] of the IP receptor antagonist, RO-1138452. The antagonist is added 30 minutes beforehand and remained throughout.\nTo extract cyclic AMP, the medium was aspirated and PASMCs cells incubated in 0.1 M HCl for 20 minutes on ice followed by centrifugation at 1000 g for 10 minutes at 4° C. The protein concentration in the supernatant was determined using a […] protein assay (BCA, Novagen, EmD Chemicals, CA, USA). Intracellular cyclic AMP was measured using a competitive enzyme immunoassay 96 well plate kit (ADI-900-163, Enzo Life Sciences, Exeter, UK) and the assay performed according to the manufacturer's instructions. Each sample was run in duplicate and data expressed as pmol of cAMP per mg of total protein for each individual sample. Basal levels were subtracted from each agonist concentration data point. Given the large variation (˜15-fold) in cAMP generation from different patient samples, data was also normalized to the peak cyclic AMP response (assigned 100%) in each cell isolate."}, "[2]": {"test_system": "human PASMCs from PAH patients", "experiment": "Cell proliferation assay (MTS), serum-induced growth", "assay_type": "cell-based", "settings": "for IP receptor dependence of the effect: cyclic AMP and cell proliferation assays in human PASMCs from PAH patients; for inhibition of serum-induced growth (significance) / inhibition at 0.1 µM: drug alone at 100 nM; for inhibition of serum-induced growth (significance): compared to serum and DMSO alone; for inhibition at 0.1 µM: Homo sapiens, PASMC, 96 h, compared to FBS and DMSO, 4 days", "experimental": "Primary cell lines of distal PASMCs from PAH patients were derived from explanted lungs as previously described (Falcetti et al., 2010; Bubb et al., 2014). These cells have an abnormal proliferative capacity when grown in culture (Zhang et al., 2007; Falcetti et al., 2010). Frozen cells were revived and grown in human smooth muscle basal medium-2 (SMBM; Lonza, Slough, UK) supplemented with 9% fetal bovine serum (FBS) at 37° C. in a humidified atmosphere of 5% CO2. After reaching confluence, cells were washed with phosphate-buffered saline (PBS) and treated with trypsin-EDTA for further passage. Only cells between passages 3 and 10 were used for experiments.\nComparative concentration-dependent effects of IP receptor agonists on cell proliferation were assessed on human PASMCs derived from PAH patients. Cells were seeded onto 96-well plates at a density of 1×10^4 cells/ml and grown at 37° C. in a humidified CO2 incubator in human smooth muscle basal medium-2 (SMBM; Lonza) containing 9% FBS and penicillin-streptomycin (Pen/Strep; 50 units/ml). After 24 hours, cells were growth arrested by incubating for 48 hours in fresh media containing no added serum. Media was then subsequently removed, replaced with human SMBM containing 9% serum with or without 0.1% DMSO in the absence and presence of the IP receptor agonist (either ralinepag, iloprost, treprostinil or MRE-269) and cells treated with the IP receptor agonist for 4 days over the concentration range ([…]). Responses were directly compared in cells containing the IP receptor antagonist, RO-1138452 (1 μM), which was added to cells 30-60 minutes prior to the addition of the IP agonist and remained throughout the experiment. Cells incubated with no added serum over the same time period (4 days) acted as the time control.\nCell proliferation was obtained using an MTS proliferation kit (Promega), a colorimetric method for determining the number of viable cells which is based on the cleavage of the tetrazolium salt MTS to formazan by cellular mitochondrial dehydrogenases. An increase in cell number leads to a proportional increase in the amount of formazan dye formed which is quantified by measuring the absorbance of the dye solution at 490 nm. In each case background absorbance was corrected by subtracting the average absorbance from the “no cell” control wells from all other absorbance values.\nCell proliferation was then normalized to the growth response induced by FBS alone, which was taken as the FBS response minus the time control (=100% growth at 4 days). Growth responses induced in presence of solvent±drugs is shown as % change in cell proliferation relative to the FBS response alone in all figures.\nAll data are presented as mean±standard error of mean (S.E.M) of at least 5 observations. Agonist log-concentration curves were constructed and fitted using the non-linear fitting routine in GraphPad Prism 4 or 6 (San Diego, Calif., USA). The concentration of agonist causing 50% of the maximal response (Emax) was expressed as the negative log (pEC50) and the mean EC50 calculated. P values <0.05 are considered statistically significant."}, "[3]": {"target": "human IP receptor (Homo sapiens, UniProt P43119)", "sequence (P43119 whole entry)": "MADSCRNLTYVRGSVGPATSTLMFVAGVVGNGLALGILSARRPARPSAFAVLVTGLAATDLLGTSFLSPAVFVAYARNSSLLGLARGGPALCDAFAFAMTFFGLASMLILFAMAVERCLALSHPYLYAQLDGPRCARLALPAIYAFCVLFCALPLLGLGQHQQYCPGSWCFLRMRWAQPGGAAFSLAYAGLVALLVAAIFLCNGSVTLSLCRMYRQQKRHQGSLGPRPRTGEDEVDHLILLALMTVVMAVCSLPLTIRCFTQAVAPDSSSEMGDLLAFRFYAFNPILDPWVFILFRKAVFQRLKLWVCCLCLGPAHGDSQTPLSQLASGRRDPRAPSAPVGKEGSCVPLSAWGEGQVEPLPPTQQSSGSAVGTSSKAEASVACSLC", "settings": "cited from earlier work"}, "[4]": {"target": "PDE1", "settings": "cited from earlier work"}}}
{"smiles": "CC(C)N(CCCCOCC(=O)O)c1cnc(-c2ccccc2)c(-c2ccccc2)n1", "note": "[MRE-269, [4[(5,6diphenylpyrazinyl)(1methylethyl)amino]butoxy]acetic acid, reference compound]", "values": [{"measurement": "maximal effect compared with treprostinil", "setting": "[1]", "value": "weaker maximal effects"}, {"measurement": "maximal effect compared with treprostinil", "setting": "[2]; cell proliferation assay", "value": "weaker maximal effects"}, {"measurement": "IP receptor dependence of the effect", "setting": "[2]", "value": "selective IP receptor agonists"}, {"measurement": "Ki", "setting": "[3]", "value": 20, "unit": "nM"}]}
{"smiles": "COc1ccccc1Oc1c(NS(=O)(=O)c2ccc(C(C)(C)C)cc2)nc(-c2ncccn2)nc1OCCO", "note": "[bosentan, reference compound]", "values": [{"measurement": "inhibition of serum-induced growth (significance)", "setting": "[2]", "value": "did not cause a significant inhibition"}]}
{"smiles": "CC#CCC(C)[C@H](O)/C=C/[C@@H]1[C@H]2C/C(=C/CCCC(=O)O)C[C@H]2C[C@H]1O", "note": "(some centres unmarked) [iloprost, reference compound]", "values": [{"measurement": "IP receptor dependence of the effect", "setting": "[2]", "value": "IP-independent mechanisms"}]}
{"smiles": "CCCNS(=O)(=O)Nc1ncnc(OCCOc2ncc(Br)cn2)c1-c1ccc(Br)cc1", "note": "[macitentan, reference compound]", "values": [{"measurement": "inhibition at 0.1 µM", "setting": "[2]", "value": "~12", "unit": "%"}]}
{"smiles": "COC(=O)N(C)c1c(N)nc(-c2nn(Cc3ccccc3F)c3ncccc23)nc1N", "note": "[riociguat, reference compound]", "values": [{"measurement": "inhibition at 0.1 µM", "setting": "[2]", "value": "~15", "unit": "%"}]}
{"smiles": "CC(C)N(CCCCOCC(=O)NS(C)(=O)=O)c1cnc(-c2ccccc2)c(-c2ccccc2)n1", "note": "[selexipag, 2-{4-[(5,6-diphenylpyrazin-2-yl)(propan-2-yl)amino]butoxy}-N-(methanesulfonyl)acetamide]", "values": [{"measurement": "Ki", "setting": "[3]", "value": 260, "unit": "nM"}]}
{"smiles": "CCCc1nn(C)c2c(=O)[nH]c(-c3cc(S(=O)(=O)N4CCN(C)CC4)ccc3OCC)nc12", "note": "[sildenafil, reference compound]", "values": [{"measurement": "Ki", "setting": "[4]", "value": 40, "unit": "nM"}, {"measurement": "inhibition of serum-induced growth (significance)", "setting": "[2]", "value": "did not significantly inhibit growth"}]}
{"smiles": "CCCCC[C@H](O)CC[C@@H]1[C@H]2Cc3cccc(OCC(=O)O)c3C[C@H]2C[C@H]1O", "note": "[treprostinil, reference compound]", "values": [{"measurement": "antiproliferative response in the presence of an IP receptor antagonist", "setting": "[2]; IP receptor antagonist RO-1138452 (1 μM)", "value": "only weakly inhibited"}, {"measurement": "IP receptor dependence of the effect", "setting": "[2]", "value": "IP-independent mechanisms"}, {"measurement": "inhibition of serum-induced growth (significance)", "setting": "[2]", "value": "significantly inhibited growth"}]}
